Test results published in ChEMBL document CHEMBL1201862, “PubChem BioAssay data set” (2004).
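Tested at 5 concentrations; 48 h exposure; 96-well plates; endpoints linearly interpolated, else capped at highest concentration. The concentration for 50% growth inhibition is given as GI50.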 The source made the active and inactive calls. No stated cut-off is given here; in the data, active = GI50 up to about 1.1 µM and inactive = higher.

Key:
Test in all cases: growth of human tumour cells (NCI), 48 h
[1] = system: RXF 393
[2] = system: SK-MEL-2
[3] = system: HOP-62
[4] = system: T47D
[5] = system: UACC-257
[6] = system: SK-MEL-5
[7] = system: NCI-H460
[8] = system: TK-10
[9] = system: A549
[10] = system: SF-539
[11] = system: DU-145
[12] = system: RPMI-8226
[13] = system: U-251
[14] = system: OVCAR-3
[15] = system: MDA-MB-231
[16] = system: MDA-MB-435
[17] = system: LOX IMVI
[18] = system: SF-295
[19] = system: OVCAR-5
[20] = system: SR

Measured: GI50

O=[N+]([O-])c1cc2c([N+](=O)[O-])cccc2o1
inactive: [1] 5.51 µM | [2] 9.16 µM | [3] 18.5 µM | [4] 6.7 µM | [5] 6.93 µM | [6] 16.7 µM | [7] > 100 µM | [8] 9.25 µM | [9] 30.1 µM | [10] 2.49 µM | [11] 14.7 µM | [12] 2.85 µM | [13] 18.4 µM | [14] 5.01 µM | [15] 12.3 µM | [16] 18 µM | [17] 3.66 µM | [18] 22.9 µM

N#CCc1nc(-c2cc3c(ccc4ccccc43)oc2=O)cs1
inactive: [1] 23.4 µM | [2] 23.1 µM | [3] 16.7 µM | [4] 27.8 µM | [5] 26.9 µM | [6] 69.3 µM | [7] 43.1 µM | [8] 18.1 µM | [9] 50 µM | [10] 21.5 µM | [11] 23.9 µM | [12] > 100 µM | [19] > 100 µM | [13] 18.9 µM | [15] 17.9 µM | [16] > 100 µM | [17] > 100 µM | [18] 26.7 µM

Cc1ccc(S(=O)(=O)NC(=O)NC(CC(=O)O)C(=O)O)cc1 (stereo unspecified)
inactive: [1] > 100 µM | [2] > 100 µM | [3] > 100 µM | [4] > 100 µM | [5] > 100 µM | [20] > 100 µM | [6] > 100 µM | [7] > 100 µM | [8] > 100 µM | [9] > 100 µM | [10] > 100 µM | [11] > 100 µM | [12] > 100 µM | [19] > 100 µM | [13] > 100 µM | [15] > 100 µM | [17] > 100 µM | [18] > 100 µM

CC(=O)CSc1c(-c2ccccc2)c(=O)n(-c2ccccc2)c(=S)n1-c1ccccc1
inactive: [2] > 100 µM | [3] > 100 µM | [4] > 100 µM | [5] > 100 µM | [20] > 100 µM | [6] > 100 µM | [7] > 100 µM | [8] > 100 µM | [9] > 100 µM | [11] > 100 µM | [12] > 100 µM | [19] > 100 µM | [13] > 100 µM | [14] > 100 µM | [16] > 100 µM | [17] > 100 µM | [18] > 100 µM

CCOC(=O)C1=CC(C)(C(=O)OCC)Nc2c(nc(SC)n(C)c2=O)N1 (stereo unspecified)
inactive: [2] > 10 µM | [3] > 10 µM | [4] > 10 µM | [5] > 10 µM | [6] > 10 µM | [7] > 10 µM | [8] > 10 µM | [9] > 10 µM | [10] > 10 µM | [11] > 10 µM | [12] > 10 µM | [19] > 10 µM | [13] > 10 µM | [14] > 10 µM | [15] > 10 µM | [16] > 10 µM | [17] > 10 µM | [18] > 10 µM

C[C@@H](C[C@@H](O)[C@H](O)C(C)(C)O)[C@H]1CC=C2[C@]3(C)[C@H](O)C[C@H]4C(C)(C)[C@H](O)CC[C@]4(C)[C@H]3CC[C@@]21C
inactive: [1] 17 µM | [2] 14 µM | [3] 15 µM | [5] 16.1 µM | [20] 21.9 µM | [6] 14.2 µM | [7] 15.8 µM | [8] 18 µM | [9] 12.7 µM | [10] 18.1 µM | [11] 16.9 µM | [12] 13.9 µM | [19] 19.2 µM | [13] 16.7 µM | [14] 13.3 µM | [15] 13.8 µM | [16] 16.4 µM | [17] 15.8 µM | [18] 15 µM

CC(C)(C)C1=C(Br)C(C(C)(C)C)OP1(=O)O (stereo unspecified)
inactive: [2] > 100 µM | [3] > 100 µM | [4] > 100 µM | [5] > 100 µM | [6] > 100 µM | [7] > 100 µM | [8] > 100 µM | [9] > 100 µM | [10] > 100 µM | [11] > 100 µM | [19] > 100 µM | [13] > 100 µM | [14] > 100 µM | [16] > 100 µM | [17] > 100 µM | [18] > 100 µM

O=C1Cc2c([nH]c3c(Cl)cccc23)-c2ccccc2N1
inactive: [3] > 100 µM | [4] > 100 µM | [20] > 100 µM | [6] > 100 µM | [7] > 100 µM | [8] > 100 µM | [9] > 100 µM | [10] > 100 µM | [11] > 100 µM | [12] > 100 µM | [19] > 100 µM | [13] > 100 µM | [14] > 100 µM | [15] > 100 µM | [16] > 100 µM | [17] > 100 µM | [18] > 100 µM
